Here are results for eight molecules from PubChem BioAssay (NCI).

Each structure is given as a SMILES string.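 Following 48 hours of exposure in 96-well plates, responses at five concentrations were used to interpolate endpoints linearly. GI50 marks 50% less growth. The concentration for full growth arrest is given as TGI.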

What all share (experiment): growth of human tumour cells (NCI), 48 h
The subject of assay [1] is OVCAR-3 ovarian.
Assay [2] concerns OVCAR-8 ovarian.
Assay [3] relates to M14 melanoma.
Assay [4] concerns UO-31 renal.
In assay [5] the test system is RXF 393 renal.
For assay [6], the system named is A549 NSCLC.
Assay [7] concerns HOP-62 NSCLC.
Assay [8] has as its system NCI-H522 lung.
In assay [9] the test system is SK-MEL-28 melanoma.
The subject of assay [10] is NCI/ADR-RES ovarian.

Take `C/C(=N\NC(=O)c1cccc(S(=O)(=O)N2CCN(C)CC2)c1)c1cc(Cl)ccc1O`: the GI50 is 385 nM in assay [1]; 494 nM in assay [2]; 1060 nM in assay [3]; 0.184 µM in assay [4]; 2800 nM in [5]; 761 nM in [6]. Also, the GI50 in assay [7] was 461 nM; in [8], 1260 nM; in [9] it was 1.36 µM; in assay [10], 1330 nM. The TGI was > 100 µM in assay [1]; > 100 µM in assay [2]; 9.85 µM in assay [3]; 12.6 µM in assay [4]; 23.9 µM in assay [5]; > 100 µM in assay [6]. In addition, the TGI in assay [7] is 37.3 µM; in assay [8], > 72.7 µM; in assay [9], > 61.3 µM; in [10], 14.9 µM.
As for `Cc1ccccc1NC(=O)N/C(N)=N/c1nc(C)c(C)s1`, the GI50 in [1] is 170 nM; in assay [2], 512 nM; in assay [3] it was 121 nM; in assay [4], 1.1 µM; in [5], 187 nM; in assay [6], 545 nM. The GI50 is 404 nM in [7], 47.8 nM in assay [8], 23.7 µM in assay [9] and 89 nM in assay [10]. The TGI is 13.5 µM in assay [1]; > 79.6 µM in assay [2]; > 100 µM in assay [3]; > 100 µM in assay [4]; 0.907 µM in [5]; > 100 µM in assay [6]. Further, the TGI in assay [7] is > 65.6 µM; in assay [8], > 42.5 µM; in assay [9], > 100 µM; in [10] it was 15.8 µM.
For the molecule `O=C(CC(O)c1cccnc1)CC(O)c1cccnc1` (stereo not given), the TGI in [1] worked out at 28.1 µM; in [2], 35.7 µM; in [3], 27.8 µM; in assay [4], 32.5 µM; in assay [5] it was 32.1 µM; in [6], 47.7 µM. Also, the TGI was 50.8 µM in assay [7], 32.1 µM in [8], 44.2 µM in [9] and > 66.1 µM in [10].
In the case of `O=C1/C(=N/N=C(c2ccccc2)c2ccccc2)c2ccccc2-c2ccccc21`, the TGI in assay [1], in [2], in assay [3], in assay [4], in assay [5] and in assay [6] was > 100 µM throughout. Besides, the TGI in assay [7], in assay [8], in [9] and in [10] was > 100 µM each time.
With `CN(C)c1ccc(/C=N/NC(=O)CSc2nc3sc4c(c3c(=O)n2-c2ccccc2)CCCCC4)cc1`, the GI50 in assay [1] was 3620 nM; in [2] it was 4830 nM; in [3], 8260 nM; in assay [4], > 100 µM; in assay [5], 3430 nM; in assay [6], 4250 nM. Moreover, the GI50 in assay [7] was 3210 nM; in assay [8], 3890 nM; in [9], 4.42 µM; in assay [10], 7850 nM. For the same molecule, the TGI in [1] is > 100 µM; in [2], > 100 µM; in [3] it was > 100 µM; in [4], > 100 µM; in assay [5], 15.2 µM; in [6] it was > 100 µM. Moreover, the TGI is 20.2 µM in assay [7], > 100 µM in [8], > 100 µM in assay [9] and > 100 µM in assay [10].
For `COc1ccc2nc(-c3ccc(Cl)cc3)cc(-c3nnc(SCC(=O)Nc4ccc(/C(C)=N\O)cc4)o3)c2c1`, the GI50 is 1580 nM in [1]; 1150 nM in assay [2]; 1810 nM in [3]; 3.26 µM in assay [4]; 1510 nM in assay [5]; 1230 nM in [6]. Moreover, the GI50 is 1630 nM in assay [7], 1200 nM in assay [8], 1.81 µM in assay [9] and 1290 nM in [10]. The TGI in [1] stood at 5.47 µM; in assay [2] it was 2.78 µM; in assay [3], 7.58 µM; in assay [4], 20.5 µM; in [5], 5.97 µM; in [6], 3.21 µM. Further, the TGI in assay [7] worked out at 7 µM; in [8], 3.83 µM; in assay [9], 7.63 µM; in assay [10], 3.75 µM.
For the molecule `C=C(C)[C@@H]1CC[C@]2(C(=O)N3CCN(C)CC3)CC[C@]3(C)[C@H](CC[C@@H]4[C@@]5(C)C/C(=C/c6ccncc6)[C@H](O)C(C)(C)[C@@H]5CC[C@]43C)[C@@H]12`, the GI50 is 4820 nM in assay [1]; 7680 nM in assay [2]; 3440 nM in assay [3]; 5.37 µM in assay [4]; 2890 nM in [5]; 5200 nM in [6]. Further, the GI50 in assay [7] was 10100 nM; in assay [8] it was 5240 nM; in assay [9] it was 7.46 µM; in [10], 4810 nM. Besides, the TGI in assay [1] was 17.2 µM; in [2], 30.7 µM; in assay [3] it was 12.6 µM; in assay [4], 21 µM; in assay [5], 10.5 µM; in assay [6], > 100 µM. Moreover, the TGI in assay [7] came out at 24.7 µM; in assay [8], 25 µM; in assay [9], 22.2 µM; in assay [10], 23.2 µM.
On to `COc1ccc2c3c(ccc2c1)NC(C(=O)O)CC3` (stereo not given), for which the TGI in assay [1], in assay [2], in assay [3], in assay [4], in assay [5] and in assay [6] was > 100 µM in each case. Also, the TGI in assay [7], in [8], in assay [9] and in assay [10] was > 100 µM in each case.
